From patent US9714250B2, “Crystalline forms of temozolomide and the method for preparing same” (Jiangsu Tasly Diyi Pharmaceutical Co., Ltd., priority 2013, dated 2017)

Legend:
Format in all cases: physicochemical
[1] = Solubility test; settings: for Amount of solvent for dissolving tested drug: about 10 mg tested drug
Method: It should be noted that each crystalline form of Form A, Form B and Form C has similar solubility properties. Hereinafter, Form A0, B0 and C were chosen only for illustrative purpose.
1. Solubility test of the crystalline Form A of Temozolomide (Form A0 prepared by the method of EXAMPLE 1). Solubility properties were assayed respectively by using DMSO, methanol, water, glacial acetic acid, 0.1M HCl, 0.1M NaOH and ethanol as the solvents.
2. Solubility test of the crystalline form B of Temozolomide (Form B0 prepared by the method of EXAMPLE 6). Solubility properties were assayed respectively by using DMSO, methanol, water, glacial acetic acid, 0.1M HCl, 0.1M NaOH and ethanol as the solvents.
3. Solubility test of the crystalline form C of Temozolomide (Form C prepared by the method of EXAMPLE 14). Solubility properties were assayed respectively by using DMSO, methanol, water, glacial acetic acid, 0.1M HCl, 0.1M NaOH and ethanol as the solvents.

[2] = Light exposure test (stability); settings: for Appearance and color / Content / Drying loss / Related substances: light intensity 4500±500Lx; for Related substances: HPLC
Method: (§1) In the following test, related substances were determined as follows: HPLC method was used and chromatographic conditions were as follows: C18 column using octadecylsilane bonded silica gel as the filler, isocratic elution using methanol: 0.5% glacial acetic acid solution (10:90) as the mobile phase, and detection wavelength was at 254 nm.
Crystalline form A of Temozolomide (Form A0 prepared by the method of EXAMPLE 1) was exposed under conditions of light intensity of 4500±500Lx, sampled and determined on the 5th and 10th day.
Crystalline form B of Temozolomide (Form B0 prepared by the method of EXAMPLE 6) was placed, exposed under conditions of light intensity of 4500±500Lx, sampled and determined on the 5th and 10th day.
Crystalline Form C of Temozolomide (Form C prepared by the method of EXAMPLE 14) was placed, exposed under conditions of light intensity of 4500±500Lx, sampled and determined on the 5th and 10th day.

[3] = High temperature test (stability); settings: for Appearance and color / Content / Drying loss / Related substances: 60° C. incubator; for Related substances: HPLC
Method: as §1
Crystalline form A of Temozolomide (Form A0 prepared by the method of EXAMPLE 1) was placed in 60° C. incubator, sampled and determined on the 5th and 10th day.
Crystalline Form B of Temozolomide (Form B0 prepared by the method of EXAMPLE 6) was placed in 60° C. incubator, sampled and determined on the 5th and 10th day.
Crystalline Form C of Temozolomide (Form C prepared by the method of EXAMPLE 14) was placed in 60° C. incubator, sampled and determined on the 5th and 10th day.

[4] = Accelerated test (stability); settings: 40±2° C., relative humidity 75±5%; for Appearance and color / Content / Related substances: polyethylene film bag; for Related substances: HPLC
Method: as §1
Crystalline Form A of Temozolomide (Form A0 prepared by the method of EXAMPLE 1) was sealed by a polyethylene film bag, placed under conditions of 40±2° C. and a relative humidity of 75±5% for 6 months, sampled and determined at the end of the 1st,2nd, 3rd and 6th month.
Crystalline Form B of Temozolomide (Form B0 prepared by the method of EXAMPLE 6) was sealed with a polyethylene film bag and placed under conditions of 40±2° C. and a relative humidity of 75±5% for 6 months, sampled and determined at the end of the 1st, 2nd, 3rd and 6th month.
Crystalline Form C of Temozolomide (Form C prepared by the method of EXAMPLE 14) was sealed with a polyethylene film bag and placed under conditions of 40±2° C. and a relative humidity of 75±5% for 6 months, sampled and determined at the end of the 1st, 2nd, 3rd and 6th month.

[5] = Stability test, overall conclusions; settings: light exposure, high-temperature, high-humidity and accelerated tests
Method: as §1
It should be noted that each crystalline form of Form A, Form B and Form C has similar stability properties. Hereinafter, Form A0, Form B0 and Form C were chosen only for illustrative purpose.

Cn1nnc2c(C(N)=O)ncn2c1=O [Form C, Temozolomide]
Amount of solvent for dissolving 1 g of tested drug ([1]; solvent 0.1M HCl): 800 mL | Solubility ([1]; solvent 0.1M HCl): Slightly soluble | Amount of solvent for dissolving tested drug ([1]; solvent 0.1M HCl): 8.0 mL | Amount of solvent for dissolving 1 g of tested drug ([1]; solvent 0.1M NaOH): 300 mL | Solubility ([1]; solvent 0.1M NaOH): Slightly soluble | Amount of solvent for dissolving tested drug ([1]; solvent 0.1M NaOH): 3.0 mL | Amount of solvent for dissolving 1 g of tested drug ([1]; solvent DMSO): 80 mL | Solubility ([1]; solvent DMSO): sparingly | Amount of solvent for dissolving tested drug ([1]; solvent DMSO): 0.8 mL | Amount of solvent for dissolving 1 g of tested drug ([1]; solvent Ethanol): 6000 mL | Solubility ([1]; solvent Ethanol): Very slightly | Amount of solvent for dissolving tested drug ([1]; solvent Ethanol): 60 mL | Amount of solvent for dissolving 1 g of tested drug ([1]; solvent Glacial acetic acid): 300 mL | Solubility ([1]; solvent Glacial acetic acid): Slightly soluble | Amount of solvent for dissolving tested drug ([1]; solvent Glacial acetic acid): 3.0 mL | Amount of solvent for dissolving 1 g of tested drug ([1]; solvent Methanol): 800 mL | Solubility ([1]; solvent Methanol): Slightly soluble | Amount of solvent for dissolving tested drug ([1]; solvent Methanol): 8.0 mL | Amount of solvent for dissolving 1 g of tested drug ([1]; solvent Water): 800 mL | Solubility ([1]; solvent Water): Slightly soluble | Amount of solvent for dissolving tested drug ([1]; solvent Water): 8.0 mL | Stability in the light exposure test (conclusion) ([2]; 4500±500Lx, 10 days): stable | Appearance and color ([2]; 0th day): White powder | Content ([2]; 0th day): 99.91% | Drying loss ([2]; 0th day): 0.27% | Related substances ([2]; 0th day): Not detected | Appearance and color ([2]; 5th day): White powder | Content ([2]; 5th day): 99.90% | Drying loss ([2]; 5th day): 0.30% | Related substances ([2]; 5th day): Not detected | Appearance and color ([2]; 10th day): White powder | Content ([2]; 10th day): 99.96% | Drying loss ([2]; 10th day): 0.32% | Related substances ([2]; 10th day): Not detected | Appearance and color ([3]; 0th day): White powder | Content ([3]; 0th day): 99.91% | Drying loss ([3]; 0th day): 0.35% | Related substances ([3]; 0th day): Not detected | Appearance and color ([3]; 5th day): White powder | Content ([3]; 5th day): 99.79% | Drying loss ([3]; 5th day): 0.37% | Related substances ([3]; 5th day): Not detected | Appearance and color ([3]; 10th day): White powder | Content ([3]; 10th day): 99.69% | Drying loss ([3]; 10th day): 0.34% | Related substances ([3]; 10th day): Not detected | Stability in the high-temperature test (conclusion) ([3]; 60° C., 10 days): stable | Stability in the accelerated test (conclusion) ([4]; 6 months): stable | Appearance and color ([4]; 0th month): White powder | Content ([4]; 0th month): 99.91% | Related substances ([4]; 0th month): Not detected | Appearance and color ([4]; 1st month): White powder | Content ([4]; 1st month): 99.61% | Related substances ([4]; 1st month): Not detected | Appearance and color ([4]; 2nd month): White powder | Content ([4]; 2nd month): 99.87% | Related substances ([4]; 2nd month): Not detected | Appearance and color ([4]; 3rd month): White powder | Content ([4]; 3rd month): 99.93% | Related substances ([4]; 3rd month): Not detected | Appearance and color ([4]; 6th month): White powder | Content ([4]; 6th month): 99.65% | Related substances ([4]; 6th month): Not detected | Change in the appearance and color, the drying loss, the content and the related substances [5]: no obvious change
